{
  "source": "patent US10036034B2",
  "about": "“Sequences involved in plant yield and methods of using” (NUtech Ventures, priority 2014, dated 2018)",
  "key": {"[1]": {"test_system": "LRD7Ta", "test": "qRT-PCR of LRD7Ta expression in GA pretreated P76 roots", "assay_type": "in vivo, wheat", "text": "FIG. 13 is data showing that gibberellins (GA) regulate lateral root formation in wheat. Panel (a) is a graph showing GA1 levels in P76 and TL roots in WW and LW conditions (mean±sd, n=30). “a” represents differences between WW and LW for a genotype and “b” represents significant genotypic differences under LW (p<0.05). Panel (b) is a graph showing expression of Agropyron allele of LRD7 (LRD7Ag) in the TL line in WW and LW conditions, with and without GA3 treatment. Transcript abundance was measured relative to WW, non-GA3 treated sample (mean±sd, n=3). “a” represents significant differences between WW and LW for roots with GA3 and no GA3 treatment, “b” represents a significant difference in response to GA treatment (p<0.05). […] “a” represents significant differences between WW and LW for a genotype and “b” represents significant genotypic differences in LW conditions (p<0.05). […] The “a” represents significance between WW and LW and “b” indicates significance between CBO37 and RNAi or OE events or between P76 and TL under LW (p<0.05).\n(§1) We used SuperScript VILO to synthesize cDNA for semi- and real-time quantitative PCR (qPCR) (Invitrogen Corp., Carlsbad, Calif.). […] Crossing point value (Cp or Ct), which was the point at which the fluorescence crosses the threshold, and melting curve analyses were obtained using the LightCycler Roche 480 Software v1.5. […]"}, "[2]": {"test_system": "LRD7Ag", "test": "qRT-PCR of LRD7Ag root transcript in GA pretreated TL seedlings", "assay_type": "in vivo, wheat", "conditions": "GA pretreated TL seedlings in LW", "text": "FIG. 13 is data showing that gibberellins (GA) regulate lateral root formation in wheat. Panel (a) is a graph showing GA1 levels in P76 and TL roots in WW and LW conditions (mean±sd, n=30). “a” represents differences between WW and LW for a genotype and “b” represents significant genotypic differences under LW (p<0.05). Panel (b) is a graph showing expression of Agropyron allele of LRD7 (LRD7Ag) in the TL line in WW and LW conditions, with and without GA3 treatment. Transcript abundance was measured relative to WW, non-GA3 treated sample (mean±sd, n=3). “a” represents significant differences between WW and LW for roots with GA3 and no GA3 treatment, “b” represents a significant difference in response to GA treatment (p<0.05). […] Expression values were obtained relative to WW, non-GA3 treated sample as control (mean±sd, n=3). “a” represents significant differences between WW and LW for a genotype and “b” represents significant genotypic differences in LW conditions (p<0.05). […]\nas §1"}, "[3]": {"test_system": "TL and P76 seedlings", "test": "Effect of Gibberellin A3 (GA3) on lateral root density of wheat seedlings in WW and LW conditions", "assay_type": "in vivo", "conditions": "for Lateral Root (PR) / Lateral Root Density / Primary Root Length: mean ± s.d., n = 30", "text": "(§2) For the early seedling stage root screening we used the cigar roll method (Zhu et al., 2006, TAG, 113:1-10). Similar sized seeds were germinated in a petri dish with moist paper towel for three days in the dark at 22-2S° C. Three seedlings per genotype were placed between two sheets of germination paper and rolled vertically. Three batches of 10 cigar rolls, totaling 30 plants per genotype were soaked in tap water and placed vertically in 1 L beaker filled with SO mL of water. Seedlings were grown in a controlled environment using a Percival Intellus Control System incubator (Model: I36VLC8) set at 25/27° C., 11.5/12.5 h day/night, 50/70% relative humidity and illumination of 80 μmols m^−2 sec^−1 during the duration of the experiments (Percival Scientific, Inc., Iowa). Water was added to each beaker twice daily to maintain the volume of 50 ml. All measurements were carried until 6 days after germination. Measurements after Day 6 can potentially be affected by limiting seed resources that drive seedling growth. For gene expression experiments, seedlings were harvested at 2, 4 and 6 days after germination. Root tissue samples were collected and snap frozen. It was hypothesized that the differences in biomass and yield between the Agropyron 7DL lines and the corresponding parental genotypes could be due to increased investment in root production, thus increasing acquisition of water and nutrients from the soil. We used a parent line, Pavon76 (P76), the 1-96-1 translocation line (TL), and a negative control (NC) for the translocation event for these experiments (FIG. 1). The total number of lateral roots (>1 mm) on the primary root axis were counted, and lateral root density was calculated by dividing the number of lateral roots on the primary root axis by the primary root length. Statistical significance was determined using a one-way ANOVA using Tukeys method. Transcriptomic comparison of the TL line and P76 indicated the differential regulation of several gibberellic acid associated genes (GSE42214; Table 8). Therefore, we tested the role of GA in lateral root regulation by treating TL and P76 seedlings with 104 GA3 in WW and LW conditions. […] Given the positive impact of exogenous GA on lateral roots, we measured the endogenous GA level in 6 d seedling roots. GA1 decreased in P76 in LW compared to WW (FIG. 13a). […] Higher GA levels in TL than P76 in LW is likely associated with its ability to maintain lateral root growth in LW. Auxin, which promotes lateral root growth, was not deficient in P76 relative to TL in LW, further supporting a GA-dependent mechanism for maintaining lateral root growth in TL (FIG. 21) (Orman-Ligeza et al., 2013, Trends Plant Sci., 18:459-67; Lavenus et al, 2013, Trends Plant Sci., 18:450-8)."}, "[4]": {"test_system": "P76 and TL seedlings", "test": "Effect of GA biosynthesis inhibitor Paclobutrazol (PAC) on lateral root density of wheat seedlings", "assay_type": "in vivo", "conditions": "for Lateral Root Density / Number of Lateral Roots / Primary Root Length: 6 d old seedlings", "text": "as §2"}},
  "note": "Like-named read-outs stand apart in the source and are kept apart here. Marks after values point to notes of the source that are not given here.",
  "data": [
    {"smiles": "C=C1C[C@]23C[C@@]1(O)CC[C@H]2[C@@]12C=C[C@H](O)[C@@](C)(C(=O)O1)[C@H]2[C@@H]3C(=O)O", "note": "[GA3, Gibberellin A3]", "values": [
      {"measurement": "LRD7Ta expression in roots compared to LW (no GA) roots", "setting": "[1]", "value": "down-regulated"},
      {"measurement": "LRD7Ta expression in roots compared to LW (no GA) roots", "setting": "[1]; listed as GA", "value": "decreased LRD7Ta expression"},
      {"measurement": "Repression of root transcript abundance of LRD7Ag relative to untreated WW control", "setting": "[2]", "value": 5, "unit": "fold"},
      {"measurement": "Effect of GA treatment on lateral root number and density", "setting": "[3]; P76, LW", "value": "restored lateral root number and density to WW levels"},
      {"measurement": "Lateral Root (PR)", "setting": "[3]; P76, LW (+GA3)", "value": "23 ± 3^b"},
      {"measurement": "Lateral Root Density", "setting": "[3]; P76, LW (+GA3)", "value": "0.96 ± 0.1^b cm^−1"},
      {"measurement": "Primary Root Length", "setting": "[3]; P76, LW (+GA3)", "value": "23.9 ± 2.2^b cm"},
      {"measurement": "Lateral Root (PR)", "setting": "[3]; P76, WW (+GA3)", "value": "24 ± 4"},
      {"measurement": "Lateral Root Density", "setting": "[3]; P76, WW (+GA3)", "value": "0.96 ± 0.1", "unit": "cm⁻¹"},
      {"measurement": "Primary Root Length", "setting": "[3]; P76, WW (+GA3)", "value": "25.5 ± 2.8", "unit": "cm"},
      {"measurement": "Effect of GA treatment on roots", "setting": "[3]; P76 and TL, WW conditions", "value": "had no effect on roots of either genotype"},
      {"measurement": "Effect of GA treatment on lateral root number and density", "setting": "[3]; TL, LW", "value": "increased the TL lateral root number and density under LW to above the untreated values"},
      {"measurement": "Lateral Root (PR)", "setting": "[3]; TL, LW (+GA3)", "value": "38 ± 4^b"},
      {"measurement": "Lateral Root Density", "setting": "[3]; TL, LW (+GA3)", "value": "1.44 ± 0.1^b cm^−1"},
      {"measurement": "Primary Root Length", "setting": "[3]; TL, LW (+GA3)", "value": "26.4 ± 2.4", "unit": "cm"},
      {"measurement": "Lateral Root (PR)", "setting": "[3]; TL, WW (+GA3)", "value": "24 ± 5"},
      {"measurement": "Lateral Root Density", "setting": "[3]; TL, WW (+GA3)", "value": "0.89 ± 0.2", "unit": "cm⁻¹"}
    ]},
    {"smiles": "CC(C)(C)[C@@H](O)[C@@H](Cc1ccc(Cl)cc1)n1cncn1", "note": "(racemic) [PAC, Paclobutrazol]", "values": [
      {"measurement": "Lateral Root Density", "setting": "[4]; P76, LW (+PAC)", "value": "0.22 ± 0.1^b cm−1"},
      {"measurement": "Number of Lateral Roots", "setting": "[4]; P76, LW (+PAC)", "value": "5 ± 2^b"},
      {"measurement": "Primary Root Length", "setting": "[4]; P76, LW (+PAC)", "value": "24.2 ± 2.9", "unit": "cm"},
      {"measurement": "Lateral Root Density", "setting": "[4]; P76, WW (+PAC)", "value": "0.45 ± 0.1^b cm−1"},
      {"measurement": "Number of Lateral Roots", "setting": "[4]; P76, WW (+PAC)", "value": "11 ± 2^b"},
      {"measurement": "Primary Root Length", "setting": "[4]; P76, WW (+PAC)", "value": "25.3 ± 3.0", "unit": "cm"},
      {"measurement": "Lateral Root Density", "setting": "[4]; TL, LW (+PAC)", "value": "0.41 ± 0.1^b cm−1"},
      {"measurement": "Number of Lateral Roots", "setting": "[4]; TL, LW (+PAC)", "value": "10 ± 1^b"},
      {"measurement": "Primary Root Length", "setting": "[4]; TL, LW (+PAC)", "value": "23.9 ± 2.6", "unit": "cm"},
      {"measurement": "Lateral Root Density", "setting": "[4]; TL, WW (+PAC)", "value": "0.49 ± 0.1^b cm−1"},
      {"measurement": "Number of Lateral Roots", "setting": "[4]; TL, WW (+PAC)", "value": "11 ± 2^b"},
      {"measurement": "Primary Root Length", "setting": "[4]; TL, WW (+PAC)", "value": "22.7 ± 2.4", "unit": "cm"},
      {"measurement": "Effect on lateral root formation", "setting": "[4]; both P76 and TL", "value": "specifically suppressed lateral root formation"}
    ]}
  ]
}
